Assay results as given in ChEMBL document CHEMBL4251663, “Marine Invertebrate Natural Products that Target Microtubules” (J Nat Prod, 2018).
pIC50: −log10 of the molar value. Converted amounts (≈) assume the structure as drawn.

Columns and labels:
Tubulin = assay: Inhibition of tubulin polymerization (unknown origin) pretreated for 15 mins followed by GTP addition by spectrophotometric method; format: protein-complex assay, Homo sapiens
HT-29 = assay: Cytotoxicity against human HT-29 cells; format: functional, cell-based
P388 = assay: Cytotoxicity against mouse P388 cells; format: functional, cell-based
[1] = Cytotoxicity against human MEL28 cells; format: functional, cell-based; conditions: SK-MEL-28
A549 = assay: Cytotoxicity against human A549 cells; format: functional, cell-based

Row | SMILES | pIC50 (Tubulin) | IC50 (HT-29) | IC50 (P388) | IC50 [1] | IC50 (A549)
1 | CC[C@H](C)[C@@H]([C@@H](CC(=O)N1CCC[C@H]1[C@H](OC)[C@@H](C)C(=O)N[C@@H](Cc1ccccc1)c1nccs1)OC)N(C)C(=O)[C@@H](NC(=O)[C@H](C(C)C)N(C)C)C(C)C [DOLASTATIN-10] | 5.92 |  |  |  | 
2 | C=C1C[C@@H]2C/C=C/C(=O)C/C(C)=C\C=C\C(=O)O[C@H]([C@H](O)NC(=O)/C=C\C=C\C)C/C(C)=C/[C@H](C1)O2 [ZAMPANOLIDE] |  | 1 to 5 ng/mL (≈ 2.02 to 10.1 nM) | 1 to 5 ng/mL (≈ 2.02 to 10.1 nM) | 1 to 5 ng/mL (≈ 2.02 to 10.1 nM) | 1 to 5 ng/mL (≈ 2.02 to 10.1 nM)
3 | COC1=CC(=O)N(C(=O)[C@@H](OC(=O)[C@@H]2CCCN2C(=O)[C@@H]2CCCN2C(=O)[C@H](C(C)C)N(C)C(=O)[C@@H](NC(=O)[C@H](C(C)C)N(C)C)C(C)C)C(C)C)[C@H]1Cc1ccccc1 [DOLASTATIN 15] | 4.64 |  |  |  | 
